The data set deals with cultured cardiomyocytes. The data set can be described thus: Pulsations of cultured cardiomyocytes before and after drug administration, by motion detection on moving images (drug evaluation apparatus). Format: cell-based. Conditions: for interval / timing of the pulsations (peak interval, rhythm of the pulsations): before vs after drug administration (after a predetermined time elapses), predetermined part of the observation region. The method, then:
FIG. 24 is a block diagram illustrating a main configuration example of a drug evaluation apparatus. The drug evaluation apparatus 1300 illustrated in FIG. 24 is an apparatus that evaluates the impact (effects, side effects, and the like) of a drug using the motions of the cultured cardiomyocytes 500 to which the drug is administered.
The imaging unit 1101 images the cultured cardiomyocytes 500 before drug administration and after drug administration.
More specifically, the evaluation index data generating unit 1303 performs, for example, between frame images of the evaluation object image data which are the moving images of the cultured cardiomyocytes 500, motion detection (generation of motion vectors) of the cultured cardiomyocytes 500 for each of the blocks which are partial regions into which the entire region of the frame image is divided. That is, the evaluation index data generating unit 1303 performs the motion detection of each of the blocks for a predetermined duration (for a predetermined number of frames). This duration may be a time of the moving images imaged by the imaging unit 1101 or may be shorter than the time.
The evaluation index data generating unit 1303 further obtains a motion amount (the length of the motion vector) of each of the generated motion vectors. That is, the evaluation index data generating unit 1303 generates the motion amounts of each of the frames of each of the blocks for a predetermined duration.
When the motion amounts of the frames of a certain block obtained by the evaluation index data generating unit 1303 are arranged in time series, for example, the graph shown in FIG. 25 is obtained. FIG. 25 is a diagram showing a form of a change in the motion amount of a certain block with respect to time obtained by the evaluation index data generating unit 1303, that is, an example of a form of the pulsations of cells.
In the graph of FIG. 25, the horizontal axis represents the elapsed time (the number of frames), and the vertical axis represents the motion amount (pixels/frame). A curve 1311 (before) represents the pulsations of the cultured cardiomyocytes 500 before drug administration, and a curve 1312 (after) represents the pulsations of the cultured cardiomyocytes 500 after drug administration. In addition, in the graph of FIG. 25, a waveform of a single pulsation (a contraction and a relaxation) is shown.
The pulsations of cardiomyocytes include contractions and relaxations, and in the curve 1311 and the curve 1312, the crest formed on the left means a “contraction” operation, and the crest formed on the right means a “relaxation” operation. A point P1-1 represents the peak of the contraction of the curve 1311 (before), and a point P1-2 represents the peak of the relaxation of the curve 1311 (before). A point P2-1 represents the peak of the contraction of the curve […] (after), and a point P2-2 represents the peak of the relaxation of the curve 1312 (after).
FIG. 31 is a diagram showing an example of forms of pulsations before and after drug administration. All the 8 graphs shown in FIG. 31 are observation results of forms (changes in the motion amount absolute value with respect to time) of pulsations of a predetermined part in an observation region of the cultured cardiomyocytes 500. The horizontal axis represents the time (sec), and the vertical axis represents the motion amount absolute value (pixcel/frame) between frames. That is, the amplitudes shown in each of the graphs represents the pulsations of the cultured cardiomyocytes 500.
The graphs on the left of FIG. 31 represent forms of the pulsations before drug administration, and the graphs on the right represent forms of the pulsations after drug administration (after a predetermined time elapses after the administration).
In addition, FIG. 32 is a diagram showing an example of forms of variations of the pulsations before and after drug administration. […]

Where [1] appears, read: FIG. 31, before vs after drug administration.
The mark [2] stands for this setting: FIG. 32, overlapped pulsations after drug administration.

The values below come from patent US10311582B2, “Image processing apparatus and method for evaluating objects in an image” (Sony Corporation, priority 2010, dated 2019).

Take `CC1(C)[C@@H](O)CC[C@]2(C)[C@H]3C(=O)C=C4[C@@H]5C[C@@](C)(C(=O)O)CC[C@]5(C)CC[C@@]4(C)[C@]3(C)CC[C@@H]12` [18-β-glycyrrhetinic acid]: the “motion amount absolute value at the peaks” value under setting [1] is “become unstable (have variations)”. For the same compound, the “interval / timing of the pulsations (peak interval, rhythm of the pulsations)” value (“interval / timing of the pulsations” for short) (FIG. 31) is “become unstable (have variations)”. Further, the “variations of the height of the peak in the waveform of the contraction” value under setting [2] is “has significant variations”.

On to `CC(C)NCC(O)c1ccc(NS(C)(=O)=O)cc1` (racemic) [DL-sotalol], for which, under setting [1], the “motion amount absolute value at the peaks” value is listed as “becomes unstable (has variations)” and the “waveform of the relaxation (the width of the pulsation)” value was “changes (becomes unstable)”. The “interval / timing of the pulsations” value (FIG. 31) is given as “the timing of the pulsation becomes unstable”. Also, under setting [2], the “variations of the height of the peak in the waveform of the contraction” value was “also has significant variations”; the “variations of the waveform of the relaxation (magnitude, time and number of appearance of the peak, width (QT elongation))” value is reported as “has significant variations”.

As for `CC(=O)Oc1ccccc1C(=O)O` [aspirin, acetylsalicylic acid], for the setting “FIG. 31”, the “interval / timing of the pulsations” value is “does not have a significant impact”. In addition, the “variations of the pulsations (overlapped waveforms of repeated pulsations)” value (FIG. 32, before vs after drug administration) is listed as “do not have significant variations”.
